Several values for one entry are separate records, joined by “and”; a condition that tells them apart may be missing. Equal values may be shown once. Toxic doses and inconclusive results are not listed. Cut-off read from the data, not from the text of the source: active = T/C of 150% or more; inactive = T/C below 125%.
Tested on: L1210 leukemia ip in BDF1 mice, survival T/C
Test: NCI In Vivo Anticancer Drug Screen. Data for tumor model L1210 Leukemia (intraperitoneal) in B6D2F1 (BDF1) mice
Conditions: endpoint: mean survival time, higher = longer survival
Outline: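 Ratio derived from survival: compound-dosed mice over vehicle-dosed mice, all bearing a transplantable tumor.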

[1] = dose: 100.0 mg/kg/injection, schedule: Q01DX001 (ip), vehicle: carboxymethylcellulose (CMC)
[2] = dose: 100.0 mg/kg/injection, schedule: Q01DX009 (ip), vehicle: Klucel (hydroxypropylcellulose) (HPC)
[3] = dose: 200.0 mg/kg/injection, schedule: Q01DX009 (ip), vehicle: Klucel (hydroxypropylcellulose) (HPC)
[4] = dose: 400.0 mg/kg/injection, schedule: Q01DX009 (ip), vehicle: Klucel (hydroxypropylcellulose) (HPC)
[5] = dose: 100.0 mg/kg/injection, schedule: Q04DX003 (ip), vehicle: saline
[6] = dose: 200.0 mg/kg/injection, schedule: Q04DX003 (ip), vehicle: saline
[7] = dose: 400.0 mg/kg/injection, schedule: Q04DX003 (ip), vehicle: saline
[8] = dose: 100.0 mg/kg/injection, schedule: Q01DX001 (ip), vehicle: saline
[9] = dose: 200.0 mg/kg/injection, schedule: Q01DX001 (ip), vehicle: saline
[10] = dose: 100.0 mg/kg/injection, schedule: Q04DX002 (ip), vehicle: Klucel (hydroxypropylcellulose) (HPC)
[11] = dose: 100.0 mg/kg/injection, schedule: Q01DX001 (ip), vehicle: Klucel (hydroxypropylcellulose) (HPC)
[12] = dose: 200.0 mg/kg/injection, schedule: Q01DX001 (ip), vehicle: Klucel (hydroxypropylcellulose) (HPC)
[13] = dose: 400.0 mg/kg/injection, schedule: Q01DX001 (ip), vehicle: Klucel (hydroxypropylcellulose) (HPC)
[14] = dose: 50.0 mg/kg/injection, schedule: Q01DX009 (ip), vehicle: saline with Tween-80
[15] = dose: 100.0 mg/kg/injection, schedule: Q04DX003 (ip), vehicle: saline with Tween-80
[16] = dose: 200.0 mg/kg/injection, schedule: Q04DX003 (ip), vehicle: saline with Tween-80
[17] = dose: 400.0 mg/kg/injection, schedule: Q04DX003 (ip), vehicle: saline with Tween-80

Measured: T/C

CCOC(=O)c1ccc2c(ccc3ccccc32)n1
inactive: dose: 25.0 mg/kg/injection, schedule: Q01DX001 (ip), vehicle: carboxymethylcellulose (CMC) 97 % of control | dose: 25.0 mg/kg/injection, schedule: Q01DX009 (ip), vehicle: carboxymethylcellulose (CMC) 98 % of control and 102 % of control | dose: 25.0 mg/kg/injection, schedule: Q04DX002 (ip), vehicle: carboxymethylcellulose (CMC) 93 % of control and 104 % of control | dose: 25.0 mg/kg/injection, schedule: Q04DX003 (ip), vehicle: carboxymethylcellulose (CMC) 108 % of control | dose: 50.0 mg/kg/injection, schedule: Q01DX001 (ip), vehicle: carboxymethylcellulose (CMC) 102 % of control | dose: 50.0 mg/kg/injection, schedule: Q01DX009 (ip), vehicle: carboxymethylcellulose (CMC) 94 % of control and 98 % of control | dose: 50.0 mg/kg/injection, schedule: Q04DX002 (ip), vehicle: carboxymethylcellulose (CMC) 97 % of control | dose: 50.0 mg/kg/injection, schedule: Q04DX003 (ip), vehicle: carboxymethylcellulose (CMC) 102 % of control | [1] 94 % of control | dose: 100.0 mg/kg/injection, schedule: Q01DX009 (ip), vehicle: carboxymethylcellulose (CMC) 100 % of control | dose: 100.0 mg/kg/injection, schedule: Q04DX002 (ip), vehicle: carboxymethylcellulose (CMC) 93 % of control and 101 % of control | dose: 100.0 mg/kg/injection, schedule: Q04DX003 (ip), vehicle: carboxymethylcellulose (CMC) 105 % of control

O=C1CCC(c2cccc([N+](=O)[O-])c2)=NN1
inactive: [2] 89 % of control | [3] 93 % of control | [4] 89 % of control

CCOC(=O)Nc1cccc([N+](=O)[O-])c1
inactive: dose: 100.0 mg/kg/injection, schedule: Q04DX003 (ip), vehicle: other 93 % of control | dose: 200.0 mg/kg/injection, schedule: Q04DX003 (ip), vehicle: other 102 % of control | dose: 400.0 mg/kg/injection, schedule: Q04DX003 (ip), vehicle: other 91 % of control

Cc1ccccc1OCCO
inactive: [5] 101 % of control | [6] 97 % of control | [7] 106 % of control

CC1=CC(=O)C=CC1=O
inactive: dose: 5.0 mg/kg/injection, schedule: Q01DX001 (ip), vehicle: saline 107 % of control

COc1ccc(NCC(O)CN2CCCC2)cc1 (stereo not given)
inactive: [8] 112 % of control | [9] 104 % of control

CNC(=O)NN
inactive: dose: 25.0 mg/kg/injection, schedule: Q04DX002 (ip), vehicle: saline with Tween-80 97 % of control | dose: 50.0 mg/kg/injection, schedule: Q04DX002 (ip), vehicle: saline with Tween-80 93 % of control | dose: 100.0 mg/kg/injection, schedule: Q04DX002 (ip), vehicle: saline with Tween-80 90 % of control

CCCCSc1nc(NC(C)C)nc(NC(C)C)n1
inactive: dose: 100.0 mg/kg/injection, schedule: Q04DX002 (sc), vehicle: olive oil, sesame oil, peanut oil 118 % of control | dose: 200.0 mg/kg/injection, schedule: Q04DX002 (sc), vehicle: olive oil, sesame oil, peanut oil 115 % of control | dose: 400.0 mg/kg/injection, schedule: Q04DX002 (sc), vehicle: olive oil, sesame oil, peanut oil 101 % of control

CC(=O)N(C)C1=C(Sc2ccc(C)cc2)C(=O)c2ccccc2C1=O
inactive: dose: 150.0 mg/kg/injection, schedule: Q01DX001 (ip), vehicle: carboxymethylcellulose (CMC) 93 % of control

O=C(O)c1cccc(C(=O)O)[n+]1[O-]
inactive: dose: 50.0 mg/kg/injection, schedule: Q04DX002 (ip), vehicle: Klucel (hydroxypropylcellulose) (HPC) 101 % of control | [10] 95 % of control

O=[N+]([O-])C1CCCCC1O (stereo not given)
inactive: dose: 10.0 mg/kg/injection, schedule: Q01DX001 (ip), vehicle: saline 103 % of control | dose: 20.0 mg/kg/injection, schedule: Q01DX001 (ip), vehicle: saline 105 % of control | dose: 40.0 mg/kg/injection, schedule: Q01DX001 (ip), vehicle: saline 100 % of control

COCCOC(=O)C(=O)OCCOC
inactive: dose: 50.0 mg/kg/injection, schedule: Q01DX009 (ip), vehicle: Klucel (hydroxypropylcellulose) (HPC) 95 % of control | [11] 97 % of control | [2] 97 % of control | [12] 90 % of control | [3] 93 % of control

Cc1ccc(C)c(OC(=O)Nc2cccc(C(F)(F)F)c2)c1
inactive: [11] 104 % of control | [2] 93 % of control and 110 % of control | [10] 105 % of control | dose: 100.0 mg/kg/injection, schedule: Q04DX003 (ip), vehicle: Klucel (hydroxypropylcellulose) (HPC) 92 % of control | [12] 98 % of control | [3] 96 % of control and 109 % of control | dose: 200.0 mg/kg/injection, schedule: Q04DX002 (ip), vehicle: Klucel (hydroxypropylcellulose) (HPC) 99 % of control and 115 % of control | dose: 200.0 mg/kg/injection, schedule: Q04DX003 (ip), vehicle: Klucel (hydroxypropylcellulose) (HPC) 97 % of control | [13] 100 % of control | [4] 101 % of control and 86 % of control | dose: 400.0 mg/kg/injection, schedule: Q04DX002 (ip), vehicle: Klucel (hydroxypropylcellulose) (HPC) 101 % of control and 105 % of control | dose: 400.0 mg/kg/injection, schedule: Q04DX003 (ip), vehicle: Klucel (hydroxypropylcellulose) (HPC) 103 % of control

FC(F)(F)S.[Ag]
inactive: dose: 75.0 mg/kg/injection, schedule: Q01DX001 (ip), vehicle: saline 95 % of control | dose: 150.0 mg/kg/injection, schedule: Q01DX001 (ip), vehicle: saline 95 % of control

COc1cccc2c1CCC1=C2CC=C2CC3(CCC21C)OCCO3 (stereo not given)
inactive: dose: 100.0 mg/kg/injection, schedule: Q01DX009 (sc), vehicle: steriod suspending solution 91 % of control | dose: 200.0 mg/kg/injection, schedule: Q01DX009 (sc), vehicle: steriod suspending solution 101 % of control | dose: 400.0 mg/kg/injection, schedule: Q01DX009 (sc), vehicle: steriod suspending solution 106 % of control

C/C=[N+](/[O-])CC
inactive: dose: 100.0 mg/kg/injection, schedule: Q01DX009 (ip), vehicle: saline 102 % of control | [5] 102 % of control | dose: 200.0 mg/kg/injection, schedule: Q01DX009 (ip), vehicle: saline 101 % of control | [6] 105 % of control | dose: 400.0 mg/kg/injection, schedule: Q01DX009 (ip), vehicle: saline 101 % of control | [7] 110 % of control

CC(C)(CO)COS(=O)(=O)c1ccc(Br)cc1
inactive: [14] 89 % of control

COc1ccc(C(C#N)C(O)(c2ccccc2)c2ccccc2)cc1 (stereo not given)
inactive: dose: 50.0 mg/kg/injection, schedule: Q01DX001 (ip), vehicle: saline 104 % of control | [8] 107 % of control | [9] 98 % of control | dose: 400.0 mg/kg/injection, schedule: Q01DX001 (ip), vehicle: saline 93 % of control

O=C(Nc1ccccc1Cl)OCC#CCOC(=O)Nc1ccccc1Cl
inactive: [15] 102 % of control | [16] 93 % of control | [17] 91 % of control

c1ccc2[nH]c(N3CCOCC3)nc2c1
inactive: [14] 100 % of control | dose: 100.0 mg/kg/injection, schedule: Q01DX009 (ip), vehicle: saline with Tween-80 107 % of control | [5] 96 % of control | dose: 200.0 mg/kg/injection, schedule: Q01DX009 (ip), vehicle: saline with Tween-80 96 % of control | [6] 97 % of control | [7] 103 % of control

O=S1(=O)CCC(NCCSS(=O)(=O)O)CC1
inactive: [15] 96 % of control | [16] 96 % of control | [17] 104 % of control

CC(=O)OC1([N+](=O)[O-])c2ccccc2C2CC1c1ccccc12 (stereo not given)
inactive: dose: 75.0 mg/kg/injection, schedule: Q04DX003 (ip), vehicle: Klucel (hydroxypropylcellulose) (HPC) 112 % of control | [11] 91 % of control | dose: 150.0 mg/kg/injection, schedule: Q04DX003 (ip), vehicle: Klucel (hydroxypropylcellulose) (HPC) 107 % of control | [12] 99 % of control | dose: 300.0 mg/kg/injection, schedule: Q04DX003 (ip), vehicle: Klucel (hydroxypropylcellulose) (HPC) 97 % of control | [13] 100 % of control

O=c1[nH]c2c(Cl)cccc2c2ccccc12
inactive: [1] 100 % of control | dose: 200.0 mg/kg/injection, schedule: Q01DX001 (ip), vehicle: carboxymethylcellulose (CMC) 107 % of control | dose: 400.0 mg/kg/injection, schedule: Q01DX001 (ip), vehicle: carboxymethylcellulose (CMC) 102 % of control

Source: PubChem BioAssay AID248 (DTP/NCI, 2004)
